Experimental data as given in patent US9089565B2, “Compositions and methods for causing neurite outgrowth” (MEDICAL RESEARCH COUNCIL, priority 2009, dated 2015).

B1: BDNF: brain-derived neurotrophic factor, member of the neurotrophin nerve growth factor family, purchased from Merck (protein, UniProt P23560 19-247, looked up)
Neurotrophic factor BDNF …: APMKEANIRGQGGLAYPGVRTHGTLESVNGPKAGSRGLTSLADTFEHVIEELLDEDQKVRPNEENNKDADLYTSRVMLSSQVPLEPPLLFLLEEYKNYLDAANMSMRVRRHSDPARRGELSVCDSISEWVTAADKKTAVDMSGGTVTVLEKVPVSKGQLKQYFYETKCNPMGYTKEGCRGIDKRHWNSQCRTTQSYVRALTMDSKKRIGWRFIRIDTSCVCTLTIKRGR

Columns and labels:
[1] = tested on: DRG neurons from postnatal day 5 rats; assay: Neurite outgrowth assay, DRG neurons with myelin-associated inhibitors; assay type: cell-based, rat; conditions: 24 hours
Description: FIG. 5. CK2 rescues postnatal rat neurones from inhibition of neurite outgrowth by the myelin-associated inhibitors, Nogo, MAG and OMgp. (A) DRG neurones from postnatal day 5 rats were cultured with or without the Nogo-66 fragment in the presence of the indicated reagents. After 24 hours from addition of the indicated reagents, cells were fixed and ã-tubulin III was detected by immunofluorescence. (B) The number of cells extending neurites of more than 20 μm and total ã-tubulin III positive cell number were counted from images taken in (A). The population of cells extending neurite-like structures of more than 20 μm was indicated as a percentage of total cell number. An average of three experiments is shown. Error bars indicate S. E. between experiments. Data were analysed with student's t test. […] (E) The number of cells extending neurites of more than 20 μm and total ã-tubulin III positive cell number were counted from images taken in (C and D). […] Cells were fixed and ã-tubulin III was detected by immunofluorescence. […] Over-expressed NgR1-Myc was detected by immunofluorescence. (H) The number of Myc-positive cells extending neurites of more than 20 μm and total Myc-positive cell number were counted from images taken in (G). […]

[2] = tested on: Entorhinal-hippocampal slices; assay: Regeneration of entorhinal-hippocampal projection in lesioned organotypic slice culture (Dil tracing); assay type: cell-based, mice; conditions: slices treated with either PKA or ATP alone, 8 days
Description: (A) Organotypic culture of Entorhinal-hippocampal slices was prepared from 129X1/SvJJmsSlc (albino) mice postnatal day 5 and 6. Culture media were changed every 2 days. […], On the day in vitro (DIV) 10, the entorhinal-hippocampal projection was transected with sterile scalpel brade. The lesioned slices were cultured for 8 days with or without 1250 U/ml PKA and 100 μM ATP. On the DIV17, a small aliquot of Dil paste (Invitrogen) was applied on the entorhinal side of the transection. […] Location of lesion made at DIV 10 is indicated as a white dot line. (B) Intensity of Dil signal near the dentate gyrus was measured with ImageJ (version 1.42q, National institute of health, USA). Measured area (100 μm square) was indicated in (A) as a open white square. Intensity was indicated as a percentage of Dil signal in control (not lesioned). Experiment was repeated for 5 time in triplicate. Typical images are indicated in (A), and average of the 5 independent experiments was plotted in (B). A student t-test was used to assess statistical significance.
In FIG. 10, entorhinal-hippocampal slices from mice postnatal day 5 or 6 were transected on day in vitro (DIV) 10, and they were incubated with or without PKA and ATP for 8 days. […]

Molecule | neurite outgrowth in the presence of the Nogo-66 fragment [1] | location of Dil [2]
Nc1ncnc2c1ncn2[C@@H]1O[C@H](COP(=O)(O)OP(=O)(O)OP(=O)(O)O)[C@@H](O)[C@H]1O [ATP] | did not suppress | location of Dil was limited in the entorhinal side of the transection
B1 | fails to block | –
